As usually defined, the ΔTm is the change in melting temperature against a reference sample.

Holding throughout (assay): DSF assay
Assay type in all cases: binding
Holding throughout (details): 20 µM compound

One assay addresses T1, AKT3A (Homo sapiens, UniProt Q9Y243).
T1 construct: purchased in-house DSF panel (SGC-style construct names; the trailing A/B is a construct suffix)

A further assay relates to BRPF1A.
Another assay addresses T2, CSNK2A2A (Homo sapiens, UniProt P19784).
T2 construct: purchased in-house DSF panel (SGC-style construct names; the trailing A/B is a construct suffix)

Another assay concerns the target T3, DCAMKL1A (Homo sapiens, UniProt O15075).
T3 construct: purchased in-house DSF panel (SGC-style construct names; the trailing A/B is a construct suffix)
T3 sequence (O15075 372-649): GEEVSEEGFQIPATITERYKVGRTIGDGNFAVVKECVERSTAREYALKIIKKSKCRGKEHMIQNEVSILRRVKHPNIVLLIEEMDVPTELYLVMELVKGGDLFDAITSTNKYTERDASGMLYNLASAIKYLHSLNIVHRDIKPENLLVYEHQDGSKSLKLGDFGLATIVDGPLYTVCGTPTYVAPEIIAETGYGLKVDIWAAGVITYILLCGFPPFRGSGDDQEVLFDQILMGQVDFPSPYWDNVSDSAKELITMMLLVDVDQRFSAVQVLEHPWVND

Another assay deals with T4, EPHB3A (Homo sapiens, UniProt P54753).
T4 construct: purchased in-house DSF panel (SGC-style construct names; the trailing A/B is a construct suffix)
T4 sequence (P54753 633-896): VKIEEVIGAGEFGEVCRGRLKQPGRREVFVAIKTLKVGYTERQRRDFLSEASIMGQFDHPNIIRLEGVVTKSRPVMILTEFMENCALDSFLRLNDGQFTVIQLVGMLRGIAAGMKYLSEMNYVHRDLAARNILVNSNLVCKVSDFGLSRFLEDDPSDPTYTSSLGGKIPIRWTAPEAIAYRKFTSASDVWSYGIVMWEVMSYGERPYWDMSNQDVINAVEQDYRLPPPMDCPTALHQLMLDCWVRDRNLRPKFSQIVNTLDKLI

A further assay deals with T5, MAP3K5A (Homo sapiens, UniProt Q99683).
T5 construct: purchased in-house DSF panel (SGC-style construct names; the trailing A/B is a construct suffix)

The target of the next assay is T6, MAPK13A (Homo sapiens, UniProt O15264).
T6 construct: purchased in-house DSF panel (SGC-style construct names; the trailing A/B is a construct suffix)
T6 sequence (O15264 1-365): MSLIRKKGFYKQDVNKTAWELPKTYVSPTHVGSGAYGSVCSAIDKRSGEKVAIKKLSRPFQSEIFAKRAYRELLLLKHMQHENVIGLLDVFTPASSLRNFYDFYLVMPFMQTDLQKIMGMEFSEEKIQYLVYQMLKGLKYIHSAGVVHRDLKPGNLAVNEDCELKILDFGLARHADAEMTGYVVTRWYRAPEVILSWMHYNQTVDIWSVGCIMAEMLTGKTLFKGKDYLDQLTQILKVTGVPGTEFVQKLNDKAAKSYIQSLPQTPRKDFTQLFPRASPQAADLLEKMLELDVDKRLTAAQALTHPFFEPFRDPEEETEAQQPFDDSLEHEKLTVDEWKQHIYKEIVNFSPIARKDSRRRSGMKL

For another assay, the target named is T7, MST3A (Homo sapiens, UniProt Q9Y6E0).
T7 construct: purchased in-house DSF panel (SGC-style construct names; the trailing A/B is a construct suffix)

The target of the next assay is T8, PAK4A (Homo sapiens, UniProt O96013).
T8 construct: purchased in-house DSF panel (SGC-style construct names; the trailing A/B is a construct suffix)

A further assay concerns the target T9, PCTK1A (Homo sapiens, UniProt Q00536).
T9 construct: purchased in-house DSF panel (SGC-style construct names; the trailing A/B is a construct suffix)

A further assay deals with T10, PDK4A (Homo sapiens, UniProt Q16654).
T10 construct: purchased in-house DSF panel (SGC-style construct names; the trailing A/B is a construct suffix)

The next assay has as its target T11, PLK4A (Homo sapiens, UniProt O00444).
T11 construct: purchased in-house DSF panel (SGC-style construct names; the trailing A/B is a construct suffix)
T11 sequence (O00444 2-275): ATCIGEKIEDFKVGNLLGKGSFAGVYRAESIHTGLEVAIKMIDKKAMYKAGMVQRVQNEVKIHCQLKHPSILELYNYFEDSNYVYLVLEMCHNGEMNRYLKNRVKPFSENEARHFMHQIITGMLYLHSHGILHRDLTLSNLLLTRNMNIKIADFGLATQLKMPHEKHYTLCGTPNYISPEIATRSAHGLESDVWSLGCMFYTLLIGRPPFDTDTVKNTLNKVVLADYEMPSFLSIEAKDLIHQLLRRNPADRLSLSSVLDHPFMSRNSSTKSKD

A further assay deals with RPS6KA6A.
Another assay has as its target T12, STK3A (Homo sapiens, UniProt Q13188).
T12 construct: purchased in-house DSF panel (SGC-style construct names; the trailing A/B is a construct suffix)
T12 sequence (Q13188 16-313): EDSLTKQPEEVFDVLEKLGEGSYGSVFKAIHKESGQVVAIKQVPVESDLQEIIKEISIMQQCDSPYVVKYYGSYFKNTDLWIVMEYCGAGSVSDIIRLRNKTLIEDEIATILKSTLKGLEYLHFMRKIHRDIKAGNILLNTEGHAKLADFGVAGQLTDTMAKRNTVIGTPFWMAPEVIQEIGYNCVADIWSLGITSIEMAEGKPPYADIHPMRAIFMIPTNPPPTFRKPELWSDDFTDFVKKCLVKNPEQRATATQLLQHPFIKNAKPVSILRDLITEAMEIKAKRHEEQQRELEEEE

The target in the next assay is T13, TLK1A (Homo sapiens, UniProt Q9UKI8).
T13 construct: purchased in-house DSF panel (SGC-style construct names; the trailing A/B is a construct suffix)
T13 sequence (Q9UKI8 456-734): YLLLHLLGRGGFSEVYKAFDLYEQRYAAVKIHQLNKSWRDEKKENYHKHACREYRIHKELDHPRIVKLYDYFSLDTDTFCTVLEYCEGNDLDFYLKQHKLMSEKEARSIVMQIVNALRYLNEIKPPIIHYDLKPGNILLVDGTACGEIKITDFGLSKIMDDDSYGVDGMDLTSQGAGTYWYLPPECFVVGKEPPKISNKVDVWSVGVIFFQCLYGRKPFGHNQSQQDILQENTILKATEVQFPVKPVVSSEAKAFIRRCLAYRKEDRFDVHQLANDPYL

A further assay concerns the target T14, VRK1A (Homo sapiens, UniProt Q99986).
T14 construct: purchased in-house DSF panel (SGC-style construct names; the trailing A/B is a construct suffix)
T14 sequence (Q99986 1-396): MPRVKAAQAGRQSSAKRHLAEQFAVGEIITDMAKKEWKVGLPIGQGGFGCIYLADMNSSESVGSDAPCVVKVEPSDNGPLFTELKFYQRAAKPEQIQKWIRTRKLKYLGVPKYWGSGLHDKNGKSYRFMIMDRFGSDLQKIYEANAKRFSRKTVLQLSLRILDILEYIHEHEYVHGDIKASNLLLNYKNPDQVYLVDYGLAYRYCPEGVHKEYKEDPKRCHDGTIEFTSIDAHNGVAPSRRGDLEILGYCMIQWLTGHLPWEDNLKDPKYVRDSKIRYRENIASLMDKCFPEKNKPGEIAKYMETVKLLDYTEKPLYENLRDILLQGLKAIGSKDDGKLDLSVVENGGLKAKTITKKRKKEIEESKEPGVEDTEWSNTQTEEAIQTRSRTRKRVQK

T1 sequence (Q9Y243 141-479): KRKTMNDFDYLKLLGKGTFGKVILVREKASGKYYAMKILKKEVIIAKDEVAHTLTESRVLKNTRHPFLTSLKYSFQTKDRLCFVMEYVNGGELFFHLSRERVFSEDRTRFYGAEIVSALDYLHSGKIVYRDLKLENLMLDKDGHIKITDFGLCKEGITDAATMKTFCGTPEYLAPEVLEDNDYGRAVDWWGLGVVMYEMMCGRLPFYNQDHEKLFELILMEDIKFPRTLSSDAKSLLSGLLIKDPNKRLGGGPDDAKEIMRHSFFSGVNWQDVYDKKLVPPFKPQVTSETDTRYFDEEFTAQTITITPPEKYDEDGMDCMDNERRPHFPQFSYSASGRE
T2 sequence (P19784 whole entry): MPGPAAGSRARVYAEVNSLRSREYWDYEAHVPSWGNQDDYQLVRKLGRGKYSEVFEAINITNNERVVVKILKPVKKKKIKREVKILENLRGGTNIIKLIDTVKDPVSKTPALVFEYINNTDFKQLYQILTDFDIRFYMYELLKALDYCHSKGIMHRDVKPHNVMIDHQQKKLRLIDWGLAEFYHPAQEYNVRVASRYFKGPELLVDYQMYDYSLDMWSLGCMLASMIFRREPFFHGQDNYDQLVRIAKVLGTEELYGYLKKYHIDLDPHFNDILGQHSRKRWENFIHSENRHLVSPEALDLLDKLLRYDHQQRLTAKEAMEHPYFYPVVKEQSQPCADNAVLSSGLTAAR
T10 sequence (Q16654 whole entry): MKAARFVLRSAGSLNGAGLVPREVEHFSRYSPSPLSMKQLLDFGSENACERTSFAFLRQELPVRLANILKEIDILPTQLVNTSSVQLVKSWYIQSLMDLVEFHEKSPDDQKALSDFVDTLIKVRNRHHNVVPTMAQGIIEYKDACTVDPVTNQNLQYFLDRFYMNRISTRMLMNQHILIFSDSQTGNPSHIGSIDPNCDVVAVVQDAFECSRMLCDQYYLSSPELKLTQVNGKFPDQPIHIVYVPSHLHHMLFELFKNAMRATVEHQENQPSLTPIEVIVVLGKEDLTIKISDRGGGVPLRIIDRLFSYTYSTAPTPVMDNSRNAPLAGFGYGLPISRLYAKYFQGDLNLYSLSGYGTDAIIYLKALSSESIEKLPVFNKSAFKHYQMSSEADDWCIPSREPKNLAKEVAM
T7 sequence (Q9Y6E0 4-301): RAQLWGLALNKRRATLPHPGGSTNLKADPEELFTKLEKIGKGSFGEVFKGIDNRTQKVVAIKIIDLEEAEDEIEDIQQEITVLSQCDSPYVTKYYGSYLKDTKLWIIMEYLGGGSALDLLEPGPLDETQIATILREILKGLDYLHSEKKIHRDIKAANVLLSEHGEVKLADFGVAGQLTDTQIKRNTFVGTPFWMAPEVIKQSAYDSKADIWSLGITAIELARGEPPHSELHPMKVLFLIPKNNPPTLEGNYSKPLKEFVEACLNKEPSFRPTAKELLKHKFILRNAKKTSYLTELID
T8 sequence (O96013 291-591): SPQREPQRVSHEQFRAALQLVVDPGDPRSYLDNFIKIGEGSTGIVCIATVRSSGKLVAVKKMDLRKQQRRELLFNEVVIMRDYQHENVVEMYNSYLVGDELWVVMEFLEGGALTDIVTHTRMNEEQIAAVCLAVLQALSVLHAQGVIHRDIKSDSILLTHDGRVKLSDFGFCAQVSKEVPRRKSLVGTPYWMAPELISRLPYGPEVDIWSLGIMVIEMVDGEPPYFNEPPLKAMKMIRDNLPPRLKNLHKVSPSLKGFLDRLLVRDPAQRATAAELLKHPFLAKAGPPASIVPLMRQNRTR
T9 sequence (Q00536 163-478): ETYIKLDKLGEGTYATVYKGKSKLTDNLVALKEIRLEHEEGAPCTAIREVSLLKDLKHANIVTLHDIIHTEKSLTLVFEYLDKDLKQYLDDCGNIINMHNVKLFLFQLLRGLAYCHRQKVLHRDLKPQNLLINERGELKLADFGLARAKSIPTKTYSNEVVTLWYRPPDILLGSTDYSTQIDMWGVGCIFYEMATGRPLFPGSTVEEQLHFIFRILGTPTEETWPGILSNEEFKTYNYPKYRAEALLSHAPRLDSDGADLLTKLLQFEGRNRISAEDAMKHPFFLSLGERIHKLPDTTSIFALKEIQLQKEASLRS
T5 sequence (Q99683 659-951): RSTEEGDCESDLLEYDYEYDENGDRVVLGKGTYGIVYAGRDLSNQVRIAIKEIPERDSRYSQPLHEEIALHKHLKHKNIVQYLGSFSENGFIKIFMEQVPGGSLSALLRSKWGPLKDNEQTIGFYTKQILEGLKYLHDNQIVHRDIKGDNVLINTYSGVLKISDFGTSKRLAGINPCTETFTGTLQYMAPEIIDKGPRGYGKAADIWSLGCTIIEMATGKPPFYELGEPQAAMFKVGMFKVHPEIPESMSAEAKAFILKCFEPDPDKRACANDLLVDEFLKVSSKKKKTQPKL

With `CC(C)(C)OC(=O)NCCCOCCOCCOCCCNC(=O)c1cc(Nc2cc(C3CC3)[nH]n2)nc(Nc2ccc(CC#N)cc2)n1` [5-L], the ΔTm at 20 µM at AKT3A was determined as 0.12 °C; at CSNK2A2A, 6.77 °C; on DCAMKL1A it was 4.7 °C; on EPHB3A it was 2.47 °C; on MAP3K5A it was 8.95 °C; at MAPK13A, 3.98 °C. Further, the shift in melting temperature (ΔTm) at 20 µM turned out to be 3.47 °C at MST3A; 9.26 °C at PAK4A; 4.53 °C at PCTK1A; 0.13 °C at PDK4A; 11.6 °C at PLK4A; 8.81 °C on STK3A. Further, the ΔTm at 20 µM came out at 4.52 °C at TLK1A and 0.51 °C on VRK1A. For the same compound, the ΔTm with BRPF1A is -0.68 °C; in the assay on RPS6KA6A it was 0.35 °C.
As for `CCOC(=O)c1cc(Nc2cc(C3CC3)[nH]n2)nc(Nc2ccc(CC#N)cc2)n1` [compound 5], the ΔTm at 20 µM at AKT3A was determined as 1.18 °C; on CSNK2A2A, 7.92 °C; on DCAMKL1A it was 0.68 °C; at EPHB3A, 4.23 °C; on MAP3K5A it was 6.97 °C; on MAPK13A, 3.76 °C. Further, the ΔTm at 20 µM at MST3A amounted to 7.56 °C; at PAK4A, 7.87 °C; on PCTK1A, 5.96 °C; at PDK4A, 0.03 °C; at PLK4A it was 13.2 °C; at STK3A it was 9.87 °C. Besides, the shift in melting temperature (ΔTm) at 20 µM on TLK1A was found to be 5.4 °C; on VRK1A it was 0.7 °C. Also, the ΔTm was -0.64 °C in the assay with BRPF1A and 0.34 °C in the assay on RPS6KA6A.
As to `CC(C)(C)OC(=O)NCCOCCOCCOCCOCCC(=O)N1CCN(c2cc(Nc3cc(C4CC4)[nH]n3)nc(Nc3ccc(CC#N)cc3)n2)CC1` [4-L], the ΔTm at 20 µM at AKT3A stood at 0.51 °C; on CSNK2A2A it was 8.28 °C; on DCAMKL1A, 0.22 °C; at EPHB3A, 6.97 °C; at MAP3K5A, 8.63 °C; on MAPK13A, 3.4 °C. For the same compound, the ΔTm at 20 µM was determined as 8.31 °C at MST3A; 11 °C on PAK4A; 4.55 °C at PCTK1A; 1.49 °C on PDK4A; 16.1 °C at PLK4A; 8.18 °C on STK3A. Besides, the ΔTm at 20 µM at TLK1A was found to be 3.45 °C; at VRK1A, 0.29 °C. Also, the ΔTm was determined as 1.15 °C in the assay with BRPF1A and 0.07 °C in the assay with RPS6KA6A.
